Source: patent US5244916A, “Inhibition of respiratory burst using posttranslational modification inhibitors” (The Scripps Research Institute, priority 1992, dated 1993)

What was measured:
[1] = tested on: HL-60 cells (NADPH oxidase / respiratory burst); test: Prevention of compactin-inhibition of FMLP-stimulated O2- formation in HL-60 cells by mevalonic acid and other supplements; type: cell-based; settings: for block in NADPH oxidase activity / cellular responsiveness after supplementation: compactin-treated HL-60 cells, exogenous supplement
Experimental: (§1) HL-60 cells were maintained in stationary culture in RPMI 1640 medium (Gibco, Grand Island, NY) containing 10% fetal bovine serum at 37° C in an atmosphere of 95 air and 5% CO2. The cells (about 8×10^5 /ml) were differentiated into neutrophil-like cells by treatment with 1.3% DMSO for six days (Harris, et al., J. Leukocyte Biol. 37: 407-422 (1985)). The cells were treated with the indicated levels of compactin or lovastatin by addition of a 1,000-fold concentrated stock solution to the appropriate concentration on day 4 of differentiation. […] In studies of the protective effect of mevalonic acid, the compound was added as the mevalonolactone (Sigma Chemical Co., St. Louis, MO) at a concentration of 1 mM to the cell culture on days 4 to 6. Similarly, cholesterol was added in the form of LDL prepared according to the method of Curtiss and Edgington (Curtiss, et al., J. Biol. Chem. 257: 15213-15221 (1991)) at a final concentration of 50 μg/ml; ubiquinone (Sigma Chemical Co., St. Louis, MO) was added as Coenzyme Q-10 at a final concentration of 0.5 mM; and dolichol (Sigma Chemical Co., St. Louis, MO) was added as a dispersion in phosphatidylcholine at a final concentration of 0.5 mM (Cutts, et al., J. Cell Physiol. 139: 550-555 (1989)).
O2 --formation by HL-60 cells was assessed by the SOD-sensitive reduction of cytochrome c. Cells were suspended at 1×10^7 /ml in Krebs-Ringer Hepes buffer with 5.5 mM glucose (KRHG) and 50-100μl of cells were added to a cuvette containing 100 μM cytochrome c (type III, Sigma Chemical Co., St. Louis, MO), ±300 μg/ml SOD (Sigma Chemical Co., St. Louis, MO) in 700-750 μl KRHG. Cytochalasin b (Sigma Chemical Co., St. Louis, MO) was added to a final concentration of 5 μg/ml, and the cells were incubated at 37° C. for five minutes while a stable baseline at a wavelength of 550 nm was obtained. O2 --formation was initiated by the addition of 1 μM N-formylmethionylleucylphenylalanine (FMLP; Sigma Chemical Co., St. Louis, MO) or 1μg/ml phorbol myristate acetate (PMA; Sigma Chemical Co., St. Louis, MO). Cytochrome c reduction at 550nm was continuously monitored and maximal rate and extent of the reaction calculated.
Inhibition of protein isoprenylation can interfere with LMWG function without inhibiting overall cellular function (Maltese, supra (1990)). Since compactin inhibits at the enzymatic step preceding mevalonic acid synthesis, one should be able to reverse effects of compactin due specifically to inhibition of this pathway by addition of exogenous mevalonic acid.

[2] = tested on: HL-60 cells; test: HL-60 cell viability by propidium iodide uptake (flow cytometry)
Experimental: as §1, with “The cells were treated with the indicated levels of compactin or lovastatin by addition of a 1,000-fold concentrated stock solution to the appropriate concentration on day 4 of differentiation.” left out
Cell viability was determined by uptake of propidium iodide (537-059; Calbiochem-Behring Corp., La Jolla, CA), detected from the emission fluorescence at 625/35 nm using a DM560 dichronic mirror (Krishan, J. Cell. Biol. 66: 188-192 (1975)). Expression of N-formyl peptide receptor was determined using fluorescein-labeled N-CHONle-Leu-Phe-Nle-Tyr-Lys (Molecular Probes, Inc., Eugene, OR) essentially by the method of Sklar and Finney (Sklar and Finney, Cytometry 3: 161-165 (1982)). Specificity of ligand binding was determined in the presence of 4 mM unlabeled T-boc peptide. CD14 expression was determined using monoclonal antibody 3C10 at a dilution of 1:1,000 (see Goyert and Ferrero, in Leucocyte Typing III: White Cell Differentiation Antigens, McMichael, ed., Oxford Univ. Press, NY, pp. 613-619 (1988)), with detection using a fluorescein-labeled secondary antibody. Flow cytometric analyses were performed on a FACSIV (registered trademark of Becton-Dickinson, San Jose, CA) equipped with a 2W argon laser (Coherent Inc., Palo Alto, collected in list mode and analyzed using the Consort 30 program (Becton-Dickinson, San Jose, CA) after collecting 10,000 events.

[3] = tested on: NADPH oxidase in HL-60 cells; test: Inhibition of NADPH oxidase activation / O2- generation in HL-60 cells (stimulus not singled out); type: cell-based
Experimental: as §1, with “(1989)). O2 --formation by HL-60 cells was assessed by the SOD-sensitive reduction of cytochrome c. Cells were suspended at 1×10^7 /ml in Krebs-Ringer Hepes buffer with 5.5 mM glucose (KRHG) and 50-100μl of cells were added to a cuvette containing 100 μM cytochrome c (type III, Sigma Chemical Co., St. Louis, MO), ±300 μg/ml SOD (Sigma Chemical Co., St. Louis, MO) in 700-750 μl KRHG. Cytochalasin b (Sigma Chemical Co., St. Louis, MO) was added to a final concentration of 5 μg/ml, and the cells were incubated at 37° C. for five minutes while a stable baseline at a wavelength of 550 nm was obtained. O2 --formation was initiated by the addition of 1 μM N-formylmethionylleucylphenylalanine (FMLP; Sigma Chemical Co., St. Louis, MO) or 1μg/ml phorbol myristate acetate (PMA; Sigma Chemical Co., St. Louis, MO). Cytochrome c reduction at 550nm was continuously monitored and maximal rate and extent of the reaction calculated.” for “(1989)).”

For C[C@@](O)(CCO)CC(=O)O [mevalonic acid], the “FMLP-stimulated O2- formation, Extent” value ([1]; 1 mM mevalonate, no compactin) was 111 ± 8.0 % of control, the “FMLP-stimulated O2- formation, Rate” value ([1]; 1 mM mevalonate, no compactin) was 120 ± 10 % of control and the “reversal of compactin inhibition of O2- formation” value ([1]; 1 mM mevalonic acid (as mevalonolactone), 4 or 10 μM compactin) was “nearly completely reversed”. For the same compound, the “block in NADPH oxidase activity / cellular responsiveness after supplementation” value [1] was “totally restored” and the “effect on control rate or extent of O2- formation” value ([1]; no compactin) was “no consistent effect”.
In the case of dolichol, the “effect on compactin blockade of oxidase activity” value (“effect on compactin blockade” for short) ([1]; 0.5 mM dolichol) is reported as “no effect” and the “block in NADPH oxidase activity / cellular responsiveness after supplementation” value [1] is reported as “apparently not overcome”.
With CC[C@H](C)C(=O)O[C@H]1C[C@@H](C)C=C2C=C[C@H](C)[C@H](CC[C@@H]3C[C@@H](O)CC(=O)O3)[C@H]21 [lovastatin] the “cell viability when inhibitor added at day 1 of differentiation” value [2] was “somewhat decreased”, the “inhibition of NADPH oxidase activation, effective concentrations” value [3] was “micromolar concentrations” and the “ability of HL-60 cells to generate O2-” value ([3]; response to receptor stimuli and downstream activators) was “markedly inhibited”.
For COC1=C(OC)C(=O)C(C/C=C(\C)CC/C=C(\C)CC/C=C(\C)CC/C=C(\C)CC/C=C(\C)CC/C=C(\C)CC/C=C(\C)CC/C=C(\C)CC/C=C(\C)CCC=C(C)C)=C(C)C1=O [ubiquinone], the “effect on compactin blockade” value ([1]; 0.5 mM ubiquinone) was “no effect” and the “block in NADPH oxidase activity / cellular responsiveness after supplementation” value [1] was “apparently not overcome”.
For CC(C)CCC[C@@H](C)[C@H]1CC[C@H]2[C@@H]3CC=C4C[C@@H](O)CC[C@]4(C)[C@H]3CC[C@]12C [cholesterol], the “effect on compactin blockade” value ([1]; 50 μg/ml LDL cholesterol) was “no effect”, the “FMLP-stimulated O2- formation, Extent” value ([1]; 50 μg/ml cholesterol, no compactin, n = 2) was 99 % of control and the “FMLP-stimulated O2- formation, Rate” value ([1]; 50 μg/μl cholesterol, no compactin, n = 2) was 90 % of control. The “block in NADPH oxidase activity / cellular responsiveness after supplementation” value [1] was “apparently not overcome”.
